Some test systems named below: MDA-MB-231 breast; HOP-92 NSCLC; CAKI-1 renal; NCI-H226 lung; A498 renal; SW-620 colon; HS 578T breast; HOP-62 NSCLC; EKVX NSCLC; MALME-3M melanoma.
Common to all, as to experiment: DTP human tumour cell line panel, 48 h

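How tested: cells in 96-well plates exposed to compound for 48 hours at five concentrations. The concentration for 50% growth inhibition is given as GI50. Definition used: TGI = concentration required for complete inhibition of growth.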

As a reminder, the TGI is the concentration at which net growth stops. As a reminder, the GI50 is the concentration at which growth is held to half of that of the control.

With `CC(C)NC(=O)OCc1c(COC(=O)NC(C)C)c(-c2ccc(Cl)c(Cl)c2)n2c1CCC2`, the TGI was more than 100 µM in the experiment on MDA-MB-231 breast; 52.2 µM with HOP-92 NSCLC; 42.2 µM in the experiment with CAKI-1 renal; 47.4 µM with NCI-H226 lung; 43.3 µM in the experiment on A498 renal; 71.7 µM in the experiment on SW-620 colon. Moreover, the TGI with HS 578T breast is more than 100 µM; in the experiment with HOP-62 NSCLC, 62 µM; with EKVX NSCLC, 69.6 µM; with MALME-3M melanoma, 70.8 µM.
Regarding `CSC1=Nc2c(c(C)c(C)n2COC(CO)CO)C2=NC(=O)CC(C)N12` (stereo not given), the GI50 with MDA-MB-231 breast, with HOP-92 NSCLC, with CAKI-1 renal, in the experiment on NCI-H226 lung, in the experiment on A498 renal and in the experiment with SW-620 colon was more than 100 µM throughout. The GI50 in the experiment on HS 578T breast, in the experiment with HOP-62 NSCLC, with EKVX NSCLC and with MALME-3M melanoma was more than 100 µM in each case. The TGI in the experiment on MDA-MB-231 breast, in the experiment with HOP-92 NSCLC, in the experiment on CAKI-1 renal, in the experiment with NCI-H226 lung, with A498 renal and in the experiment on SW-620 colon was more than 100 µM throughout. Also, the TGI in the experiment with HS 578T breast, in the experiment on HOP-62 NSCLC, with EKVX NSCLC and in the experiment with MALME-3M melanoma was more than 100 µM in each case.
On to `Clc1ccc(C2=NN[C@H](c3cn(-c4ccccc4)nc3-c3ccccc3)C2)cc1`, for which the GI50 in the experiment on MDA-MB-231 breast was 5.91 µM; in the experiment with HOP-92 NSCLC, 2.24 µM; with CAKI-1 renal, 10.4 µM; with NCI-H226 lung it was 5.96 µM; with A498 renal, 2.93 µM; in the experiment with SW-620 colon, 4.31 µM. Further, the GI50 in the experiment on HS 578T breast is 3.46 µM; in the experiment on HOP-62 NSCLC it was 2.31 µM; in the experiment with EKVX NSCLC, 3.16 µM; with MALME-3M melanoma, 5.66 µM. Further, the TGI with MDA-MB-231 breast turned out to be 24.9 µM; in the experiment with HOP-92 NSCLC, 6.88 µM; in the experiment with CAKI-1 renal, 44.9 µM; in the experiment with NCI-H226 lung, 25.4 µM; in the experiment with A498 renal, 8.77 µM; in the experiment with SW-620 colon, 32 µM. The TGI was 15.9 µM in the experiment on HS 578T breast, 5.76 µM in the experiment with HOP-62 NSCLC, 18.8 µM in the experiment with EKVX NSCLC and more than 100 µM in the experiment on MALME-3M melanoma.
Turning to `C=C(C)[C@@H]1CC[C@]2(C(=O)O)CC[C@]3(C)[C@H](CC[C@@H]4[C@@]5(C)C/C(=C/c6ccc(OC)cc6)C(=O)C(C)(C)[C@@H]5CC[C@]43C)[C@@H]12`, the GI50 with MDA-MB-231 breast was 2.32 µM; with HOP-92 NSCLC, 0.738 µM; in the experiment on CAKI-1 renal, 2.16 µM; with NCI-H226 lung, 1.85 µM; in the experiment with A498 renal, 2.28 µM; with SW-620 colon it was 1.95 µM. For the same compound, the GI50 with HS 578T breast is 2.65 µM; in the experiment on HOP-62 NSCLC, 2.24 µM; in the experiment with EKVX NSCLC it was 2.36 µM; in the experiment on MALME-3M melanoma, 1.84 µM. For the same compound, the total growth inhibition concentration (TGI) in the experiment on MDA-MB-231 breast came out at 7.78 µM; in the experiment on HOP-92 NSCLC it was 3.36 µM; in the experiment on CAKI-1 renal it was 11.5 µM; in the experiment with NCI-H226 lung, 4.3 µM; in the experiment with A498 renal, 8.47 µM; in the experiment on SW-620 colon, 4.61 µM. The total growth inhibition concentration (TGI) came out at 9.03 µM in the experiment with HS 578T breast, 7.51 µM in the experiment on HOP-62 NSCLC, 10.5 µM in the experiment with EKVX NSCLC and 4.29 µM in the experiment with MALME-3M melanoma.
On to `CS(=O)(=O)c1ccc(Oc2cc(F)cc(C#N)c2)c2c1[C@H](O)C(F)(F)C2`, for which the GI50 in the experiment with MDA-MB-231 breast, in the experiment with HOP-92 NSCLC, with CAKI-1 renal, in the experiment on NCI-H226 lung, in the experiment on A498 renal and in the experiment on SW-620 colon was more than 100 µM each time. The GI50 in the experiment with HS 578T breast, in the experiment with HOP-62 NSCLC, in the experiment with EKVX NSCLC and in the experiment on MALME-3M melanoma was more than 100 µM throughout. The TGI in the experiment with MDA-MB-231 breast, in the experiment on HOP-92 NSCLC, in the experiment on CAKI-1 renal, with NCI-H226 lung, with A498 renal and in the experiment with SW-620 colon was more than 100 µM each time. Also, the TGI in the experiment with HS 578T breast, in the experiment on HOP-62 NSCLC, with EKVX NSCLC and in the experiment with MALME-3M melanoma was more than 100 µM each time.
For the compound `O=C(CN1C(=O)S/C(=C\C(Cl)=C\c2ccccc2)C1=O)NCCc1ccc(O)cc1`, the GI50 is 2.09 µM in the experiment on MDA-MB-231 breast; 1.58 µM in the experiment with HOP-92 NSCLC; 1.78 µM with CAKI-1 renal; 1.99 µM in the experiment with NCI-H226 lung; 1.65 µM in the experiment on A498 renal; 1.82 µM in the experiment on SW-620 colon. Also, the GI50 with HS 578T breast was 2.72 µM; in the experiment with HOP-62 NSCLC, 3.34 µM; in the experiment on EKVX NSCLC, 2.04 µM; in the experiment with MALME-3M melanoma, 2.03 µM. Further, the TGI in the experiment on MDA-MB-231 breast came to 6.52 µM; in the experiment on HOP-92 NSCLC it was 5.05 µM; in the experiment on CAKI-1 renal it was 3.76 µM; with NCI-H226 lung, 4.4 µM; in the experiment with A498 renal, 7.75 µM; in the experiment with SW-620 colon, 4.22 µM. Moreover, the TGI came out at 7.97 µM in the experiment on HS 578T breast, 15.7 µM in the experiment with HOP-62 NSCLC, 4.74 µM with EKVX NSCLC and 5.96 µM in the experiment on MALME-3M melanoma.
Take `Brc1ccccc1C=NC12CC3CC(CC(C3)C1)C2`: the TGI with MDA-MB-231 breast, in the experiment on HOP-92 NSCLC, in the experiment on CAKI-1 renal, in the experiment with NCI-H226 lung, in the experiment with A498 renal and in the experiment on SW-620 colon was more than 100 µM each time. The TGI in the experiment on HS 578T breast, with HOP-62 NSCLC, in the experiment on EKVX NSCLC and in the experiment with MALME-3M melanoma was more than 100 µM throughout.
Regarding `OCC1OC2OC3C(CO)OC(OC4C(CO)OC(OC5C(CO)OC(OC6C(CO)OC(OC7C(CO)OC(OC1C(O)C2O)C(O)C7O)C(O)C6O)C(O)C5O)C(O)C4O)C(O)C3O` (stereo not given) (tested in a mixture with another compound), the TGI with MDA-MB-231 breast, in the experiment with HOP-92 NSCLC, with CAKI-1 renal, with NCI-H226 lung, in the experiment with A498 renal and with SW-620 colon was more than 100 µM each time. In addition, the TGI in the experiment with HS 578T breast, in the experiment on HOP-62 NSCLC, in the experiment with EKVX NSCLC and in the experiment with MALME-3M melanoma was more than 100 µM each time.
As for `O=C(O)c1ccccc1-c1ccccc1C(=O)Nc1ccc2c(c1)[nH]c(=O)c1ccccc12`, the TGI in the experiment on MDA-MB-231 breast, in the experiment with HOP-92 NSCLC, in the experiment with CAKI-1 renal, with NCI-H226 lung, in the experiment on A498 renal and with SW-620 colon was more than 100 µM in each case. Also, the TGI in the experiment on HS 578T breast, in the experiment on HOP-62 NSCLC, in the experiment with EKVX NSCLC and in the experiment on MALME-3M melanoma was more than 100 µM throughout.

Values taken from PubChem BioAssay (NCI).
